# Measurements from ChEMBL document CHEMBL3507680, “University of Dundee, Gates Library screen for HepG2 cell viability”.
# Assay: Human HepG2 cell viability assay in 384 well format
# Assay type: toxicity, cell-based
# Set-up: dose 125 nL, time 70.5 hour; cytotoxicity at 70.5 h: concentration not given beside the values
# Settings: HepG2 cells, read-out: Inhibition
row,SMILES,cytotoxicity at 70.5 h [%]
1,CCC1(CC)Cc2ccccc2-c2nc(NCCCO)[nH]c(=O)c21,-14.8
2,c1ccc(CN2CCC3(CC2)Nc2ccccc2CO3)cc1,-6.59
3,CCC1(C)Cc2ccccc2-c2nc(NCCCO)nc(O)c21 (configuration not stated),-4.42
4,Cc1csc(CN2CC[C@H]3C[C@H](c4ccncn4)O[C@@H]3C2)n1,-2.15
5,CNC(=O)C1Cn2ccnc2C2(CCN(c3ccc(C)nn3)CC2)O1 (configuration not stated),-0.593
6,Cc1nc(CN2CCO[C@H]3CN(C(=O)c4cscn4)C[C@H]32)cs1,-5.86
7,COCC1CC2(CCN(C(=O)c3ccc(F)cc3C)CC2)CO1 (configuration not stated),-2.86
8,Cc1nc(CN2CC[C@H]3C[C@H](c4ccncn4)O[C@@H]3C2)cs1,-3.68
9,CNC(=O)C1Cn2ccnc2C2(CCN(C(=O)c3ccccn3)CC2)O1 (configuration not stated),-2.1
10,Cc1ccc(C(=O)N2C[C@@H]3C[C@@H](c4nnc(C5CC5)o4)O[C@@H]3C2)s1,-3.56
11,O=C(c1ncccn1)N1C[C@@H]2COC[C@]2(COCc2cccnc2)C1,-5.13
12,O=C(O)c1nnn(-c2ccccc2F)c1-c1ccncc1,5.16
13,O=C(O)c1nnn(-c2ccccc2)c1-c1ccncc1,-30.6
14,COc1ccc(N2CCN(CC(O)c3ccc(C)cc3C)CC2)cc1 (configuration not stated),-3.49
15,CN1CCc2c(C#N)c(NCCc3ccccc3)n3cnnc3c2C1,-12.4
16,NC(=O)c1ccc(NC(=O)Cn2cc(I)cn2)cc1,-13.1
17,O=C(Cn1ccc2cc(Br)ccc21)NCc1ccc(C(=O)O)cc1,-27.5
18,O=C(CCn1ccc2ccc(Br)cc21)NCc1ccc(C(=O)O)cc1,-21.2
19,O=C(COc1coc(CN2CCSCC2)cc1=O)c1ccccc1,-24.2
20,O=C(Cn1ccc2ccc(Cl)cc21)NCc1ccc(C(=O)O)cc1,-2.47
21,COCCNc1c(C#N)c2c(c3nncn13)CN(C)CC2,-5.01
22,CCOc1ccc(NC(=O)Cn2cc(I)cn2)cc1,-18.2
23,CCOC(=O)c1ccc(NC(=O)Cn2cc(I)cn2)cc1,-4.39
24,N#CCc1ccc(NC(=O)Cn2cc(I)cn2)cc1,-9.71

row,SMILES,cytotoxicity at 70.5 h [%]
1,Cc1nc(-c2ccccc2)cc2nn(CC(N)=O)c(=O)n12,-2.53
2,CCN(CC)C(=O)Cn1c(-c2ccc(Cl)cc2)nc(C)c(CCO)c1=O,0.81
3,CC/N=c1\nc(NCC)nc2n1C(O)(Nc1cccc(C)c1C)CS2 (configuration not stated),-6.29
4,COc1ccc(-c2cc3nn(CC(N)=O)c(=O)n3c(C)n2)cc1,-7.26
5,Cc1nc(-c2ccc(Cl)cc2)n(CC(=O)NC(C)C)c(=O)c1CCO,-8.99
6,COc1ccc(-c2cc3nn(CC(=O)NC(C)C)c(=O)n3c(C)n2)cc1,1.34
7,O=c1[nH]nc2c(S(=O)(=O)N3CCCCCC3)cccn12,-7.77
8,O=c1[nH]nc2c(S(=O)(=O)N3CCCCC3)cccn12,-0.253
9,CSc1nc2ncc3c(=O)n(C)ccc3n2n1,-8.16
10,CCCc1nnc2sc(-c3cc(C(C)C)n[nH]3)nn12,15.4
11,c1ccc(-c2nnc3sc(CCN4CCCCCC4)nn23)cc1,-11.1
12,c1ccc2c(c1)COC1(CCCCC1)N2,-4.51
13,CC(C)Cc1nnc2sc(-c3cc(C(C)C)n[nH]3)nn12,12.3
14,CC(=O)Nc1sc2c(c1C(=O)O)CCc1ccccc1-2,-11.4
15,O=C(Cc1ccc2c(c1)OCCCO2)Nc1nnn[nH]1,-6.98
16,O=C(Cc1ccc2c(c1)OCC2)Nc1nc(C(F)(F)F)n[nH]1,0.788
17,O=c1ccc(-c2ccccc2F)nn1CN1CCCCCC1,-4.57
18,Cc1ccccc1CSc1ncc(Br)c(C(=O)O)n1,-5.71
19,Cc1noc(-c2ccc(N3CCCC(C(=O)O)C3)nc2)n1 (configuration not stated),-3.67
20,O=C(NCCCn1cccn1)C1(c2ccccc2)CCOCC1,-10.8
21,Cc1ccc(C2(C(=O)NCCCn3cccn3)CCOCC2)cc1,14.4
22,O=C(O)c1cnc(N2CCC(O)CC2)nc1COc1ccc(F)cc1,-21.6
23,O=C(O)c1cnc(N2CCC(O)CC2)nc1COc1cccc(F)c1,-12.9
24,COc1c(Br)c(C(=O)NC2CCCC2)nn1C,-9.06

row,SMILES,cytotoxicity at 70.5 h [%]
1,COc1c(Br)c(C(=O)NC2CC2)nn1C,0.124
2,Cn1ncc(C(=O)N2CCOCC2)c1Cl,-13.1
3,CC1CCCCN1C(=O)COCc1nc(-c2ccncc2)no1 (configuration not stated),4.94
4,CN1CCN(C(=O)COCc2nc(-c3ccncc3)no2)CC1,17.1
5,O=C(COCc1nc(-c2ccncc2)no1)N1CCCCC1,-6.97
6,CCn1nc(C)c2nnn(CC(=O)Nc3ccc(C)cc3)c(=O)c21,-4.64
7,CCn1nc(C)c2nnn(CC(=O)Nc3ccc(C)c(C)c3)c(=O)c21,-7.31
8,O=C(O)c1cnc(N2CCCC2)nc1COc1ccc(F)cc1,-21.1
9,CCCNc1cc(C(=O)N2CCOCC2)nc(C)n1,-4.28
10,Cc1nc(C(=O)N2CCOCC2)cc(N2CCC(C(N)=O)CC2)n1,-0.347
11,COc1cccc(OCCc2nnc(NC(C)=O)s2)c1,-6.24
12,COCc1nc(N(C)C)ncc1C(=O)NC(C)c1ccccc1 (configuration not stated),-5.51
13,CCc1c(O)nc2nc(N3CCOCC3)nn2c1C,-11
14,CCc1c(O)nc2nc(N3CCCC3)nn2c1C,-5.54
15,O=C(Nc1cc(-c2ccncc2)no1)C1CC1,-10.1
16,O=C(Nc1cc(-c2ccncc2)no1)C1CCC1,-10.3
17,COc1c(C(=O)NCc2cnn(C)c2C)nnn1Cc1ccccc1,23
18,COc1c(C(=O)NCc2cccnc2)nnn1Cc1ccccc1,-7.04
19,Cc1cc(N2CCCN(c3ccnc(C)c3)CC2)ccn1,-7.78
20,Cc1cccc(NC(=O)c2ccc(OCc3nnnn3C)cc2)n1,14.4
21,COc1cc(-c2n[nH]c(CN)n2)cc(OC)c1OC,23.8
22,Oc1ccccc1-c1n[nH]c(C2CCCO2)n1 (configuration not stated),28.5
23,COCCCNC(=O)c1cc(C(C)C)nc(N2CCCCCC2)n1,-8.22
24,COc1c(C(=O)NCc2cccnc2)nnn1Cc1ccc(C)cc1,-15.1

row,SMILES,cytotoxicity at 70.5 h [%]
1,CC(=O)Nc1ncc(S(=O)(=O)Nc2ccc(F)cc2)s1,30.4
2,CCn1c(Nc2ccccc2OC)nc2c(C)nn(C)c2c1=O,14
3,COc1cc2cc(C(=O)O)n(C)c2cc1OC,-14.4
4,CCn1cc(CN(C)S(=O)(=O)c2ccc(NC(C)=O)cc2)cn1,26.5
5,CCN(CC)CCNC(=O)c1nn(CC)cc1Cl,18.6
6,CCn1cc(N2Cc3nc(N4CCOCC4)ncc3C2=O)cn1,2.67
7,CCn1cc(N2Cc3nc(N)ncc3C2=O)cn1,29.8
8,CCn1nc(C)c2nnn(CC(=O)Nc3c(C)cccc3C)c(=O)c21,27.9
9,CSCc1cccc(S(=O)(=O)N2CCC(C)CC2)c1,8.82
10,Cc1nn(C)c2c(NCCCn3cccn3)ncnc12,-6.36
11,Cc1nn(C)c2cnn(C(C)C(=O)NCc3cccnc3)c12 (configuration not stated),-5.87
12,Cc1cccnc1NC(=O)C(C)Cn1nc(C(F)(F)F)cc1C (configuration not stated),-4.08
13,CCc1noc(C2CCCCN2C(=O)c2nnc3ccccc3n2)n1 (configuration not stated),17.3
14,CCc1noc(C2CCCCN2C(=O)c2ccn(C3CCCC3)n2)n1 (configuration not stated),31
15,CCn1nc(C)c2ncnc(NCC(=O)N3CCOCC3)c21,-11.2
16,CCn1nc(C)c2ncnc(NCCCN3CCOCC3)c21,6.44
17,Cc1nn(C)c2c(N3CCN(C(=O)NC4CCCCC4)CC3)ncnc12,4.87
18,Cc1nc(N2CCN(C(=O)C3CC3)CC2)c2c(n1)c(C)nn2C,0.516
19,CCC(=O)Nc1nnc(CCOc2cccc(OC)c2)s1,6.47
20,CCOCCCNC(=O)c1cc(C(C)C)nc(N2CCCCCC2)n1,26.5
21,CCN(CC)CCNC(=O)c1cc(C(C)C)nc(N2CCCC2)n1,56.7
22,CCOCCCNC(=O)c1cc(C)nc(N2CCCC2)n1,21.7
23,Cc1ccc(CNC(=O)Cn2ncc3c2c(C)nn3C)cc1,-0.794
24,Cc1nn(C)c2cnn(CC(=O)NCCc3ccccc3)c12,-6.1

row,SMILES,cytotoxicity at 70.5 h [%]
1,O=C1CC(c2ccc(F)c(F)c2)c2snc(C(=O)O)c2N1 (configuration not stated),8.54
2,Cc1ccc2cnn(CCC(=O)NCc3c(C)nn(C)c3C)c2c1,-6.87
3,CCc1noc(C2CCN(C(=O)CCn3nc(C)cc3C)CC2)n1,-12.9
4,CC1CCN(C(=O)c2ccn(COc3ccc(F)cc3)n2)CC1,-6.36
5,CCCn1ccc(C(=O)N2CCC(C)CC2)n1,-11.6
6,Cc1nc(NCCc2ccc(Cl)cc2)cc(C(=O)N2CCCCC2)n1,13.8
7,Cc1nc(NCc2ccc(C)o2)cc(C(=O)N2CCOCC2)n1,-9.84
8,O=C(COCc1nc(-c2ccncc2)no1)N1CCCC1,-4.88
9,CN1CCc2c(C#N)c(NCC3CCCO3)n3cnnc3c2C1 (configuration not stated),-5.45
10,CCOc1ccc(Cl)cc1C1CCCCN1 (configuration not stated),-17.3
11,CCOc1c(CNCCCn2ccnc2)cc(Cl)cc1OC,-5.3
12,CCOc1ccc(CNCCCn2ccnc2)cc1Cl,0.65
13,CS(=O)(=O)N1CC[C@]2(C[C@@H](Oc3ccccn3)CO2)C1,-3.36
14,CS(=O)(=O)N1CCC2(CC1)CC(Oc1ccccn1)CO2 (configuration not stated),-3.34
15,Cc1ccc(C(=O)N2CCO[C@H]3[C@H](OCCN(C)C)CC[C@@H]32)o1,-4.42
16,Cc1ccc(CN2CCOCC3(C2)CN(c2ccc(C)s2)C(=O)CO3)o1 (configuration not stated),0.222
17,O=C(c1cnccn1)N1CCCC2(CCN(Cc3cccnc3)C2)C1 (configuration not stated),-4.19
18,COCCN1C[C@@H]2CN(Cc3ccoc3)CCC[C@]2(C(=O)O)C1,-1.11
19,O=C1COC2(COCCN(Cc3cccnc3)C2)CN1c1ccccc1 (configuration not stated),-0.932
20,O=C(CN(C1=NCCCCC1)c1ccc(Cl)cc1)c1ccccc1,10.9
21,Cc1cccc(N(CC(=O)c2ccccc2)C2=NCCCCC2)c1,-11.4
